Measurements: paper PMC11555526, “Development of 2-Aminoadenine-Based Proteolysis-Targeting Chimeras (PROTACs) as Novel Potent Degraders of Monopolar Spindle 1 and Aurora Kinases” (ACS Pharmacology & Translational Science, 2024)
“And” between values parts separate entries of the source, which are not always exact repeats. Equal entries are not always repeated. Where two headings read alike, the source gives them in different places.

How the values were obtained:
MV4-11 cells (naive) = assay: alamarBlue cell viability assay; type: cell-based, human
Procedure: Finally, to study the effect of the compounds on cancer cell survival, MV4-11 cells were treated with various concentrations of the chimeras and the cell viability was assessed after 72 h. […] As opposed to the parent inhibitor MPS1-IN-3, its derivatives except 40 were not cytotoxic (Figure S7B, Table 5). […] In addition, most of the SF1-based derivatives affected the viability of MV4-11 cells in nanomolar concentrations (Table 5).
For the alamarBlue cell viability assay, cells were seeded in 96-well plates and treated with indicated concentrations of the compounds or vehicle. A few hours before the experimental end point (72 h, unless otherwise stated), the cells were incubated with the alamarBlue reagent. Finally, fluorescence (excitation: 550 nm and emission: 600 nm) or absorbance (570 nm with reference at 600 nm) was measured on a Tecan Spark Multiplate reader (Tecan).

[1] = molecular target: T1, TTK (MV4-11^HiBiT-TTK cells) (Homo sapiens, UniProt P33981); assay: HiBiT assay, TTK degradation; type: cell-based; parameters: key to Dmax (maximal degradation) TTK: compounds with degradation less than 15% reported as “inactive”; conditions: for Dmax (maximal degradation) TTK / DC50 / DC50 (half-maximal degradation concentration) TTK: 6 h treatment, MV4-11^HiBiT-TTK cells; for DC50: read-out: DC50 (half-maximal degradation concentration) TTK
T1 construct: expressed in transfected cells; host or cells: MV4-11, lentiviral transduction (pRRL-PGK-HiBiT entry vector)
T1 sequence (P33981 1-857): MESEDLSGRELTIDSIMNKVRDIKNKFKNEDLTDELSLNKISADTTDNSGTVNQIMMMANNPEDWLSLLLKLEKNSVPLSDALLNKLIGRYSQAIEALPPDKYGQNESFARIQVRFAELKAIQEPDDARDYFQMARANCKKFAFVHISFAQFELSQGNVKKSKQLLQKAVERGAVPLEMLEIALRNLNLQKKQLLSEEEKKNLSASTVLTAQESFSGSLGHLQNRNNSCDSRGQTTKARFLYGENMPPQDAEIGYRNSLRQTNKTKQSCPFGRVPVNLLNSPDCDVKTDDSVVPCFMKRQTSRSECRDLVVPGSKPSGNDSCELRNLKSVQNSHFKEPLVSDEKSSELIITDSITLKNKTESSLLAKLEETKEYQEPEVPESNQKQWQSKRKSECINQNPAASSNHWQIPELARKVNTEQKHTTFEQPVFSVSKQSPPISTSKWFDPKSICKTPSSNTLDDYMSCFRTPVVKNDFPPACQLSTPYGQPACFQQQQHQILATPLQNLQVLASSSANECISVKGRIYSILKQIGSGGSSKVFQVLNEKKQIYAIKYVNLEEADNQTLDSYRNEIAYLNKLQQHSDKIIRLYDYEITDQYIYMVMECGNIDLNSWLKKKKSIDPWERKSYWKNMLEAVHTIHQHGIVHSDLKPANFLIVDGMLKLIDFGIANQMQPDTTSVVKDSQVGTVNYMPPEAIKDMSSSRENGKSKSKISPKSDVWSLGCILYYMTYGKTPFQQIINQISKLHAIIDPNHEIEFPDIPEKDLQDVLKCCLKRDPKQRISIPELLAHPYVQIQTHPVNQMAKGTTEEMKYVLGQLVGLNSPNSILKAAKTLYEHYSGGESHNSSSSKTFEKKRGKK
Procedure: (§1) The effects of the synthesized compounds on AURKA, AURKB, and TTK mitotic kinases were then assessed in cellular systems. For this, HiBiT cell lines were generated for all three mitotic kinases. A small 11 amino acid peptide fragment of luciferase (HiBiT) was fused to the coding sequence of the proteins and stably transduced in the MV4-11 cell line (MV4-11^AURKA-HiBiT, MV4-11^AURKB-HiBiT, and MV4-11^HiBiT-TTK).
(§2) The stable cell lines MV4-11^AURKA-HiBiT, MV4-11^AURKB-HiBiT, and MV4-11^HiBiT-TTK cells were generated by lentiviral infection. Lentivirus was produced using the respective HiBiT vector, plasmids psPAX2, and pMD2.G in HEK293 cells. The virus supernatant was filtered and MV4-11 cells were doubly infected with the supernatant. The cells were selected after 48 h of infection until the control cells were dead to get the stable cell line.
(§3) The cells stably expressing HiBiT-tagged protein were seeded into 96-well plates and treated with serial dilutions of compounds for the indicated time points. At the end point, the assay was performed using the Nano-Glo HiBiT Lytic Detection System (Promega) according to the manufacturer’s instruction. Luminescence was measured on a GloMax 96 Microplate Luminometer (Promega) or a Tecan Spark Multiplate reader (Tecan). DC50 was calculated using concentrations showing sigmoidal behavior with the dose–response (four parameters) equation in Prism (GraphPad).

[2] = molecular target: T2, AURKB (MV4-11^AURKB-HiBiT cells) (Homo sapiens, UniProt Q96GD4); assay: HiBiT assay, AURKB degradation; type: cell-based; parameters: key to Dmax (maximal degradation) AURKB: compounds with degradation less than 15% reported as “inactive”; conditions: 6 h treatment; for DC50: read-out: DC50 (half-maximal degradation concentration) AURKB
T2 construct: expressed in transfected cells; host or cells: MV4-11, lentiviral transduction (pRRL-PGK vector)
Procedure: as §1, §2, §3

[3] = molecular target: T3, AURKA (MV4-11^AURKA-HiBiT cells) (Homo sapiens, UniProt O14965); assay: HiBiT assay, AURKA degradation; type: cell-based; conditions: for DC50: read-out: DC50 (half-maximal degradation concentration) AURKA
T3 construct: expressed in transfected cells; host or cells: MV4-11, lentiviral transduction
T3 sequence (O14965 1-403): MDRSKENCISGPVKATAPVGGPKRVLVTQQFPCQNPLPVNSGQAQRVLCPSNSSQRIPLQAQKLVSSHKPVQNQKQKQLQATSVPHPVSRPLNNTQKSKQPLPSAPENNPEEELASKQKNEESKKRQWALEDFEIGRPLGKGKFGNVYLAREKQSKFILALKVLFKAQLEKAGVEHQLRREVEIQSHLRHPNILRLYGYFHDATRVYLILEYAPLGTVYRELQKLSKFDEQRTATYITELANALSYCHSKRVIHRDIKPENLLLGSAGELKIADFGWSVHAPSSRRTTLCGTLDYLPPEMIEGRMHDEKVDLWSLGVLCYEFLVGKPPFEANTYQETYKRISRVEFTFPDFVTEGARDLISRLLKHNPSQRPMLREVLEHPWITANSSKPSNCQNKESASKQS
Procedure: as §1, §2, §3

[4] = 72 h treatment, MV4-11 cells (naive), read-out: EC50 (concentration that decreases cell viability by 50%)
[5] = 6 h treatment, MV4-11^AURKA-HiBiT cells
[6] = 72 h, MV4-11 cells, read-out: EC50 cytotoxicity

T2 sequence (Q96GD4 1-345 isoform Q96GD4-5): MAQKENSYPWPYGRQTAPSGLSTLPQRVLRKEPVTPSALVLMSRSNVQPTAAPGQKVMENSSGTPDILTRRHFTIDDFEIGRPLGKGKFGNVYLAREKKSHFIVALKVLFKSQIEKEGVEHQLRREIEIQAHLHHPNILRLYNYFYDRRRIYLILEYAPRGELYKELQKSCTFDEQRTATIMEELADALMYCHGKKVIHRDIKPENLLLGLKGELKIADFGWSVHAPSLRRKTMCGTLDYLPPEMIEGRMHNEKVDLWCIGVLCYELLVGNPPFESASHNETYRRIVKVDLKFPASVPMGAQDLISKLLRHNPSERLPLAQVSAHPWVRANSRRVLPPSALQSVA

Compound | EC50 (MV4-11 cells (naive); [4]) [nM] | Dmax (maximal degradation) TTK [1] | DC50 [1] | Dmax (maximal degradation) AURKB [2] | DC50 [2] [nM] | Dmax (maximal degradation) AURKA [3, 5] [%] | DC50 [3, 5] [nM] | selectivity of AURKA degradation (DC50) relative to TTK ([3]; HiBiT, 6 h) [fold] | DC50 (half-maximal degradation concentration) TTK [1] | DC50 (half-maximal degradation concentration) AURKB [2] | EC50 (MV4-11 cells (naive); [6]) [nM] | EC50 (concentration that decreases cell viability by 50%) (MV4-11 cells (naive); 72 h treatment, MV4-11 cells (naive)) | fold lower activity (DC50) against TTK in comparison to degrader 19 ([1]; HiBiT, 6 h) [fold] | DC50 (half-maximal degradation concentration) AURKA [3, 5]
O=C1CCC(N2C(=O)c3cccc(NC(=O)CCCC(=O)N4CCN(c5ccc(Nc6nc(NC7CCCCC7)c7nc[nH]c7n6)cc5)CC4)c3C2=O)C(=O)N1 (stereo not shown) [Compound 13] | 1210 | 27.70% | 3 nM | 30.60% | 380 | 68.40 | 94 |  |  |  |  |  |  | 
CC(C)S(=O)(=O)c1ccccc1Nc1nc(Nc2ccc(N3CCN(C(=O)CCC(=O)Nc4cccc5c4C(=O)N(C4CCC(=O)NC4=O)C5=O)CC3)cc2)nc2[nH]cnc12 (stereo not shown) [Compound 15] | 39 | 35.20% | 42 nM | 33.15% | 154 | 74.55 | 2.05 | 21 |  |  |  |  |  | 
O=C1CCC(N2C(=O)c3cccc(NC(=O)COCCOCC(=O)N4CCN(c5ccc(Nc6nc(NC7CCCCC7)c7nc[nH]c7n6)cc5)CC4)c3C2=O)C(=O)N1 (stereo not shown) [Compound 17] | 506 | 39.40% | 66 nM | 36.10% | 598 | 68.90 | 239 |  |  |  |  |  |  | 
CC(C)S(=O)(=O)c1ccccc1Nc1nc(Nc2ccc(N3CCN(C(=O)COCCOCC(=O)Nc4cccc5c4C(=O)N(C4CCC(=O)NC4=O)C5=O)CC3)cc2)nc2[nH]cnc12 (stereo not shown) [Compound 18] | 1130 | inactive |  | 22.20% |  | 62.10 | 1260 |  | – (compounds with degradation less than 25% were not calculated and reported as “–”) | – (compounds with degradation less than 25% were not calculated and reported as “–”) |  |  |  | 
O=C(CCCC(=O)Nc1cccc2c1C(=O)N(C1CCC(=O)NC1=O)C2=O)NCC(=O)N1CCN(c2ccc(Nc3nc(NC4CCCCC4)c4nc[nH]c4n3)cc2)CC1 (stereo not shown) [Compound 19] | 1380 | 67% and 66.50% | 18 nM and 17.7 nM | 43.60% | 570 | 78.80 | 109 |  |  |  | 1400 |  |  | 
COc1cc(N2CCN(C(=O)CNC(=O)CCCC(=O)Nc3cccc4c3C(=O)N(C3CCC(=O)NC3=O)C4=O)CC2)ccc1Nc1nc(Nc2ccccc2S(=O)(=O)C(C)C)c2nc[nH]c2n1 (stereo not shown) [Compound 21] |  | 41.90% | 26 nM | inactive |  | 59.30 | 56 |  |  | – (compounds with degradation less than 25% were not calculated and reported as “–”) |  | — (compounds with decrease of cell viability less than 50% were not calculated and reported as “—”) |  | 
CN1C(=O)CCC(N2C(=O)c3cccc(NC(=O)CCCC(=O)NCC(=O)N4CCN(c5ccc(Nc6nc(NC7CCCCC7)c7nc[nH]c7n6)cc5)CC4)c3C2=O)C1=O (stereo not shown) [Compound 23] | 697 | 32.55% | 600 nM | 48.30% | 363 | 55.25 | 299 |  |  |  | 700 |  | 34 | 
CC(C)S(=O)(=O)c1ccccc1Nc1nc(Nc2ccc(N3CCN(C(=O)CNC(=O)CCCC(=O)Nc4cccc5c4C(=O)N(C4CCC(=O)N(C)C4=O)C5=O)CC3)cc2)nc2[nH]cnc12 (stereo not shown) [Compound 24] | 618 | 16.95% |  | 20.40% |  | 17.00 |  |  | – (compounds with degradation less than 25% were not calculated and reported as “–”) | – (compounds with degradation less than 25% were not calculated and reported as “–”) |  |  |  | – (compounds with degradation less than 25% were not calculated and reported as “–”)
CC(C)S(=O)(=O)c1ccccc1Nc1nc(Nc2ccc(N3CCN(CC(=O)Nc4cccc5c4C(=O)N(C4CCC(=O)NC4=O)C5=O)CC3)cc2)nc2[nH]cnc12 (stereo not shown) [Compound 26] | 57 | 28.90% | 205 nM | 33.40% | 2690 | 34.80 | 119 |  |  |  |  |  |  | 
